“And” between values parts separate entries of the source, which are not always exact repeats. Equal values may be shown once. “Also recorded” adds a separate entry of the source. Where a name gives a salt, the structure may show the parent alone. Read-outs that look alike come from different tables or passages of the source.
Tests used:
optic nerve [1] = experiment: Compound action potential of isolated optic nerves perfused with ATP; set-up: species or system C57BL6 mice; settings: ATP 10 mM, 3h (180 min), 37°C, compared to matched controls
[2] = tested on: optic nerve oligodendrocytes; experiment: Whole-cell recording of ischaemic inward current in cultured oligodendrocytes (chemical ischaemia); format: cell-based, Sprague-Dawley rats
Protocol: After 2-4 days in vitro, cultures were composed of at least 98% 04/Ga1C^+ cells. No microglial cells were detected in these cultures. […] Cell death was determined 24h later using calcein-AM (Invitrogen) as previously described (Matute et al., 1997 Proc Natl Acad Sci U S A 94:8830-8835.). Antagonists were present during in vitro ischaemia and during the next 24h incubation period. […] Calcein was used to quantify the number of cells within the reading field. Fluorescence was measured as above and values were plotted as the percentage of DCFDA/calcein red-orange fluorescence versus control. […] Molecular Probes). […] The changes in the membrane potential were calculated as the red (emission at 590)/green (emission at 520) ratio in each condition and results were normalized to control. Whole cell recordings were performed at room temperature and at a holding membrane potential of -70 mV. Extracellular bath solution with a pH of 7.3 contained (in mM): […] Patch clamp pipettes (3-5 MΩ) were filled with internal solution at a pH of 7.3 containing (in mM): CsCI 140, CaC12 2, MgC12 2, HEPES 10, EGTA 11, Na-ATP 2. For electrophysiology monitoring, ischaemia was induced chemically by using the glycolytic blocker iodoacetate (1 mM) and the oxidative phosphorylation inhibitor antimycin (2.5 μM), and omitting glucose because recordings were performed in an open chamber where O2 can diffuse to the cells (Káradóttir et al., 2005). Recordings of ATP currents were performed in divalent cation-free extracellular solutions, obtained by omitting Ca^2+ and Mg^2+, to potentiate P2X-mediated responses (Matute et al., 1997 Proc Natl Acad Sci U S A 94:8830-8835.). […] Molecular Probes, Inc., Eugene, OR) in culture medium for 30 min at 37 °C. Experiments were carried out in a coverslip chamber continuously perfused with a buffer containing 20 mM HEPES, 2 mM CaC12, 10 mM glucose in HBSS at 1 ml/min. The perfusion chamber was mounted on the stage of a Zeiss inverted epifluorescence microscope (Axiovert 35), equipped with a 150 W xenon lamp Polychrome IV (TILL Photonics GMBH) and a Plan Neofluar 40x oil immersion objective (Zeiss, Germany). Cells were visualized with a high resolution digital B/W CCD camera (ORCA; Hamamatsu Photonics Iberica, Barcelona, Spain) and image acquisition and data analysis were carried out using the AquaCosmos software program (Hamamatsu Photonics Iberica). Images were acquired every 30 ms at 37°C and ischaemia was induced as above. […] At the end of the assay, in situ calibration was carried out with the successive addition of […] and 2M Tris/50 mM EGTA, pH 8.5. Data were analyzed with Excel and Prism software.

[3] = tested on: optic nerve oligodendrocytes; experiment: Reactive oxygen species (DCFDA) after OGD in oligodendrocyte cultures; format: cell-based, Sprague-Dawley rats; settings: 1 h OGD; BBG 50 nM, PPADS 100 µM
Protocol: (§1) Primary cultures of oligodendrocytes derived from optic nerves of 12 day-old Sprague-Dawley rats were obtained as previously described (Matute et al., 1997 Proc Natl Acad Sci U S A 94:8830-8835.).Cells were maintained at 37°C and 5% CO2 in a chemically defined medium (Matute et al., 1997 Proc Natl Acad Sci U S A 94:8830-8835.). After 2-4 days in vitro, cultures were composed of at least 98% 04/Ga1C^+ cells. No microglial cells were detected in these cultures. […] Cell death was determined 24h later using calcein-AM (Invitrogen) as previously described (Matute et al., 1997 Proc Natl Acad Sci U S A 94:8830-8835.). Antagonists were present during in vitro ischaemia and during the next 24h incubation period. […] Calcein was used to quantify the number of cells within the reading field. Fluorescence was measured as above and values were plotted as the percentage of DCFDA/calcein red-orange fluorescence versus control. The changes in mitochondrial membrane potential were monitored with 5,5',6,6'-tetrachloro-1,1',3,3'-tetraethylbenzimidazolcarbocyanine iodide (JC-1; Molecular Probes). […] The changes in the membrane potential were calculated as the red (emission at 590)/green (emission at 520) ratio in each condition and results were normalized to control.

[4] = tested on: optic nerve oligodendrocytes; experiment: Mitochondrial membrane potential (JC-1) after OGD in oligodendrocyte cultures; format: cell-based, Sprague-Dawley rats; settings: 1 h OGD; BBG 50 nM, PPADS 100 µM
Protocol: as §1

[5] = tested on: optic nerve oligodendrocytes; experiment: Oxygen and glucose deprivation (OGD) cell death in oligodendrocyte cultures (calcein-AM); format: cell-based, Sprague-Dawley rats; settings: 1h OGD, calcein 24h later; PPADS 100 µM, BBG 50 nM, CNQX 30 µM, APV 100 µM, apyrase 20 U/ml, ARL67156 100 µM, CBX 20 µM, FFA 100 µM, MFQ 1 nM
Protocol: Primary cultures of oligodendrocytes derived from optic nerves of 12 day-old Sprague-Dawley rats were obtained as previously described (Matute et al., 1997 Proc Natl Acad Sci U S A 94:8830-8835.).Cells were maintained at 37°C and 5% CO2 in a chemically defined medium (Matute et al., 1997 Proc Natl Acad Sci U S A 94:8830-8835.). After 2-4 days in vitro, cultures were composed of at least 98% 04/Ga1C^+ cells. No microglial cells were detected in these cultures. […] Cell death was determined 24h later using calcein-AM (Invitrogen) as previously described (Matute et al., 1997 Proc Natl Acad Sci U S A 94:8830-8835.). Antagonists were present during in vitro ischaemia and during the next 24h incubation period. […] To assay the levels of reactive oxygen species (ROS), cells were loaded with 40 µM 2',7'- dichlorodihyfluoresceindiacetate (DCFDA; Invitrogen) and 1 µM calcein red-orange (Molecular Probes) immediately after OGD. Calcein was used to quantify the number of cells within the reading field. Fluorescence was measured as above and values were plotted as the percentage of DCFDA/calcein red-orange fluorescence versus control. The changes in mitochondrial membrane potential were monitored with 5,5',6,6'-tetrachloro-1,1',3,3'-tetraethylbenzimidazolcarbocyanine iodide (JC-1; Molecular Probes). Immediately after OGD, cells were loaded with JC-1 (3 µM) at 37°C for 30 min. The changes in the membrane potential were calculated as the red (emission at 590)/green (emission at 520) ratio in each condition and results were normalized to control.

[6] = tested on: AMPA and kainate receptors; experiment: Glutamate receptor agonist (AMPA, kainate) induced oligodendrocyte death (calcein fluorescence); format: cell-based, Sprague-Dawley rats; settings: AMPA (100 µM) + cyclothiazide (100 µM), or kainate (3 mM) + GYKI 53655 (50 µM); PPADS 100 µM, BBG 50 nM
Protocol: as §1

optic nerves = experiment: Optic nerve ischaemia (OGD), tissue damage by LDH release; set-up: species or system rats
Protocol: After 1h OGD at 37°C, the medium was replaced with fresh solution containing glucose and equilibrated with 95% O2, 5% CO2 and the nerves were incubated for another 2h at 37°C to simulate reperfusion.

optic nerve [7] = tested on: optic nerve
P2X3 = target: T1, P2X3 (Homo sapiens, UniProt P56373); settings: read-out: IC50 P2X3; cited from earlier work
T1 sequence (P56373 1-397): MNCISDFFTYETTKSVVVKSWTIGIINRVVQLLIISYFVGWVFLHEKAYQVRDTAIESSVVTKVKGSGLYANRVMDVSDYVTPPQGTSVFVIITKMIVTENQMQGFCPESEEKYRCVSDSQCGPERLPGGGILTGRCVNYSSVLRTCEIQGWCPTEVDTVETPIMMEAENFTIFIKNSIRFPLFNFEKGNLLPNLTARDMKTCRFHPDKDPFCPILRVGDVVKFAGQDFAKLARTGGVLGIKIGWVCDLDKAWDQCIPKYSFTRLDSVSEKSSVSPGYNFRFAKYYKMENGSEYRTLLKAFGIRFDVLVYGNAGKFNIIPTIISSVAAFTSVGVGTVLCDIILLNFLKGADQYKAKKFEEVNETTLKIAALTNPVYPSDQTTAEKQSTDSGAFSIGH

Pannexin hemichannels = settings: cited from earlier work
P2X4 = target: T2, P2X4 (Homo sapiens, UniProt Q99571); settings: read-out: IC50 P2X4; cited from earlier work
T2 sequence (Q99571 1-388): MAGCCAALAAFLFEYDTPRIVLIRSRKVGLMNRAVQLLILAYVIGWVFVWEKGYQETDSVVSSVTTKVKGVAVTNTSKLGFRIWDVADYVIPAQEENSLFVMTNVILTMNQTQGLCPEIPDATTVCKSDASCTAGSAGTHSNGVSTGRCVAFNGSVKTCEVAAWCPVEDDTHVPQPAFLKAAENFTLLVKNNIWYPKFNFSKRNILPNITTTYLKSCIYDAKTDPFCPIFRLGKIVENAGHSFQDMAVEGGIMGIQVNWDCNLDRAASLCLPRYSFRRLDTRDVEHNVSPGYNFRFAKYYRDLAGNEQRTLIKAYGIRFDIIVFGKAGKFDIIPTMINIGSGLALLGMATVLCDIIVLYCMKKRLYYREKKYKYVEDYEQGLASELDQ

[8] = tested on: optic nerve oligodendrocytes; experiment: Ca2+ imaging (fura-2) of oligodendrocytes during chemical ischaemia; format: cell-based, Sprague-Dawley rats
Protocol: After 2-4 days in vitro, cultures were composed of at least 98% 04/Ga1C^+ cells. No microglial cells were detected in these cultures. […] Cell death was determined 24h later using calcein-AM (Invitrogen) as previously described (Matute et al., 1997 Proc Natl Acad Sci U S A 94:8830-8835.). Antagonists were present during in vitro ischaemia and during the next 24h incubation period. […] Calcein was used to quantify the number of cells within the reading field. Fluorescence was measured as above and values were plotted as the percentage of DCFDA/calcein red-orange fluorescence versus control. […] Molecular Probes). […] The changes in the membrane potential were calculated as the red (emission at 590)/green (emission at 520) ratio in each condition and results were normalized to control. Whole cell recordings were performed at room temperature and at a holding membrane potential of -70 mV. Extracellular bath solution with a pH of 7.3 contained (in mM): […] Patch clamp pipettes (3-5 MΩ) were filled with internal solution at a pH of 7.3 containing (in mM): CsCI 140, CaC12 2, MgC12 2, HEPES 10, EGTA 11, Na-ATP 2. […] Data were analyzed with Excel and Prism software.

P2X7 = target: T3, P2X7 (Homo sapiens, UniProt Q99572); settings: cited from earlier work
T3 sequence (Q99572 1-595): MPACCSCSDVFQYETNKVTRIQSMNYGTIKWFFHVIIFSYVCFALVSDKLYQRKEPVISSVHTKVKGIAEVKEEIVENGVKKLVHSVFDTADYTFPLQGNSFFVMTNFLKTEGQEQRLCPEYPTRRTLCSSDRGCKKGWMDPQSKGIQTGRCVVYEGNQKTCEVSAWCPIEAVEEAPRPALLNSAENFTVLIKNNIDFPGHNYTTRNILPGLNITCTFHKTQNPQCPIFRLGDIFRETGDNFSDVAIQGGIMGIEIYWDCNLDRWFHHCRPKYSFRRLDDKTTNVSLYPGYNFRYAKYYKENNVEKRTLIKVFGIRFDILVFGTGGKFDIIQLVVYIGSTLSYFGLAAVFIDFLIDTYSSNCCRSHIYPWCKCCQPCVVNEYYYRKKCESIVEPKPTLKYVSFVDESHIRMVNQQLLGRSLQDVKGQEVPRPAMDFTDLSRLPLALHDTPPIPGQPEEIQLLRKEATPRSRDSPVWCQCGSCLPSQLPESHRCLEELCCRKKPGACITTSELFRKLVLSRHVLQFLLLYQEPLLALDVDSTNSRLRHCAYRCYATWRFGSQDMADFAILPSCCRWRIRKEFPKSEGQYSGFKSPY

Compound: Nc1ncnc2c1ncn2[C@@H]1O[C@H](COP(=O)(O)OP(=O)(O)OP(=O)(O)O)[C@@H](O)[C@H]1O [ATP]
- reduction in CAP area (optic nerve [1]): 50% and 50.1 ± 10.5%

Compound: CCOc1ccc(Nc2ccc(C(=C3C=CC(=[N+](CC)Cc4cccc(S(=O)(=O)[O-])c4)C=C3C)c3ccc(N(CC)Cc4cccc(S(=O)(=O)O)c4)cc3C)cc2)cc1 [BBG, Coomassie brilliant blue G]
- OGD-induced currents ([2]; BBG 50 nM, CNQX (30 µM) plus APV (100 µM) applied before the onset of ischemia): inhibited
- OGD currents after drug application versus OGD currents before drug application ([2]; after washing the antagonists out, average over BBG and PPADS, n= 15): 134 ± 32%
- ischaemic inward currents ([2]; chemical ischaemia (iodoacetate, antimycin, no glucose), -70 mV, PPADS 100 µM, oATP 1 mM, BBG 50 nM): significantly reduced; also recorded: partial block
- generation of radical oxygen species (ROS) [3]: prevented
- mitochondrial depolarization [4]: prevented
- OGD-induced oligodendrocyte cell death [5]: significantly reduced
- glutamate receptor-induced oligodendrocyte death [6]: did not significantly inhibit
- ischaemia-induced damage to optic nerves (LDH release) (optic nerves; P28 rat optic nerves, 1h OGD + 2h reperfusion, PPADS 1 mM, BBG 50 nM, oATP 1 mM, apyrase 20 U/ml, MFQ 1 µM, CBX 100 µM, FFA 1 mM): prevented; also recorded: reduced
- OGD-induced damage at all developmental stages (optic nerves; premyelinating (P7), myelinating (P14) and mature (P28) optic nerves): decreased; also recorded: protected
- recovery of axon function (CAP area) after the ischaemic insult (optic nerve [7]; 60 min after 1 h OGD, BBG 50 nM, o-ATP 1 mM): significantly improved
- IC50 (P2X3): > 10 µM

Compound: CC1(C)[C@@H](OC(=O)CCC(=O)O)CC[C@]2(C)[C@H]3C(=O)C=C4[C@@H]5C[C@@](C)(C(=O)O)CC[C@]5(C)CC[C@@]4(C)[C@]3(C)CC[C@@H]12 [Carbenoxolone disodium]
- IC50 (Pannexin hemichannels): ~5 µM

Compound: O=C(Nc1cccc(C(=O)Nc2ccc(S(=O)(=O)O)c3cc(S(=O)(=O)O)cc(S(=O)(=O)O)c23)c1)Nc1cccc(C(=O)Nc2ccc(S(=O)(=O)O)c3cc(S(=O)(=O)O)cc(S(=O)(=O)O)c23)c1 [NF023]
- IC50 (P2X3): < 29 µM
- IC50 (P2X4): > 100 µM

Compound: Nc1ncnc2c1ncn2[C@@H](C=O)O[C@@H](C=O)COP(=O)(O)OP(=O)(O)OP(=O)(O)O [o-ATP, the sodium salt of adenosine 5-triphosphate, oxidized with periodate]
- ischaemic inward currents [2]: significantly reduced
- increase in [Ca2+]i caused by ischaemia [8]: significantly blocked; also recorded: significantly reduced
- OGD-induced damage at all developmental stages (optic nerves): decreased; also recorded: protected
- ischaemia-induced damage to optic nerves (LDH release) (optic nerves): prevented; also recorded: reduced
- recovery of axon function (CAP area) after the ischaemic insult (optic nerve [7]): significantly improved
- IC50 (P2X7): 5 µM
